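The compound was tested at five concentrations on cells cultured in 96-well plates, with a 48-hour exposure period. Definition used: TGI = concentration required for complete inhibition of growth.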
How the values were obtained:
Experiment in all cases: DTP human tumour cell line panel, 48 h
NCI-H226 lung = system: NCI-H226 lung
CAKI-1 renal = system: CAKI-1 renal
SK-MEL-28 melanoma = system: SK-MEL-28 melanoma
RXF 393 renal = system: RXF 393 renal
NCI-H460 lung = system: NCI-H460 lung
COLO 205 colon = system: COLO 205 colon
HCC-2998 colon = system: HCC-2998 colon
HCT-15 colon = system: HCT-15 colon
A549 NSCLC = system: A549 NSCLC
LXFL 529 NSCLC = system: LXFL 529 NSCLC
RPMI-8226 leukemia = system: RPMI-8226 leukemia
OVCAR-4 ovarian = system: OVCAR-4 ovarian
TK-10 renal = system: TK-10 renal
RXF-631 renal = system: RXF-631 renal
EKVX NSCLC = system: EKVX NSCLC
SN12C renal = system: SN12C renal
MALME-3M melanoma = system: MALME-3M melanoma
SK-MEL-2 melanoma = system: SK-MEL-2 melanoma
DMS 273 small cell lung = system: DMS 273 small cell lung
786-0 renal = system: 786-0 renal
UACC-257 melanoma = system: UACC-257 melanoma
ACHN renal = system: ACHN renal
KM12 colon = system: KM12 colon
SW-620 colon = system: SW-620 colon
SNB-19 CNS = system: SNB-19 CNS
UO-31 renal = system: UO-31 renal
MOLT-4 leukemia = system: MOLT-4 leukemia
SK-OV-3 ovarian = system: SK-OV-3 ovarian
SNB-75 CNS = system: SNB-75 CNS
SNB-78 CNS = system: SNB-78 CNS
DMS 114 small cell lung = system: DMS 114 small cell lung
OVCAR-5 ovarian = system: OVCAR-5 ovarian
K-562 leukemia = system: K-562 leukemia
SF-539 CNS = system: SF-539 CNS
SK-MEL-5 melanoma = system: SK-MEL-5 melanoma
SF-268 CNS = system: SF-268 CNS
UACC-62 melanoma = system: UACC-62 melanoma
IGROV1 ovarian = system: IGROV1 ovarian
CCRF-CEM leukemia = system: CCRF-CEM leukemia
LOX IMVI melanoma = system: LOX IMVI melanoma
OVCAR-8 ovarian = system: OVCAR-8 ovarian
HL-60(TB) leukemia = system: HL-60(TB) leukemia
OVCAR-3 ovarian = system: OVCAR-3 ovarian
M19-MEL melanoma = system: M19-MEL melanoma
XF 498 CNS = system: XF 498 CNS
HOP-92 NSCLC = system: HOP-92 NSCLC
HT29 colon = system: HT29 colon
M14 melanoma = system: M14 melanoma
SF-295 CNS = system: SF-295 CNS
NCI-H522 lung = system: NCI-H522 lung
U251 CNS = system: U251 CNS
HOP-62 NSCLC = system: HOP-62 NSCLC
A498 renal = system: A498 renal
NCI-H23 lung = system: NCI-H23 lung
KM20L2 colon = system: KM20L2 colon
HOP-18 NSCLC = system: HOP-18 NSCLC
HCT-116 colon = system: HCT-116 colon
DLD-1 colon = system: DLD-1 colon

Measured: TGI

COC(=O)c1cc(O)ccc1O
not listed: A498 renal | NCI-H23 lung | KM20L2 colon | HOP-18 NSCLC | HCT-116 colon | DLD-1 colon
> 100 µM: all other assays above

O=C1CCC(=O)c2ccccc2N1
not listed: RXF-631 renal | SNB-78 CNS | UACC-62 melanoma
> 100 µM: all other assays above

From PubChem BioAssay (NCI)
